Laboratory results from patent US7183279B2, “Histogranin-like peptides and non-peptides, processes for their preparation and uses thereof” (University of Ottawa, priority 2006, dated 2007).
Entries after “also recorded” stand apart in the source; their conditions may differ. Where two headings read alike, the source gives them in different places. Non-standard residues stand in square brackets, D forms with d. Residues, ends and D or L forms follow the SMILES beside them. Phe(4-Cl) = N[C@@H](Cc1ccc(Cl)cc1)C(=O)O

How the values were obtained:
[1] = system: Swiss Webster mice; test: Mouse rotarod assay; conditions: 10 nmol i.c.v.
Text: Mouse rotarod assay. The rotarod treadmill (model 7600, UGO Basile, Italy) for mice was used to assess the motor side-effects of antinociceptive agents. […] The apparatus is constituted of a rod with a diameter of 2.5 cm suspended horizontally 50 cm above a plane working area. The rod is turning at a speed of 8 revolutions per min. Circular perpex separators are placed at regular intervals along the rod so that five mice can be tested at the same time. Before administering any compound, all animals are placed on the turning rod for one min in two consecutive rounds. Mice that fall from the rod during these conditioning experiments are excluded from the assay. For the assay, the test compounds were administered i.c.v. and the animals were placed on the turning rod for two min. The % of mice in groups of 10 mice which fell during this latter two min-experiment was recorded as the % of mice showing motor effects. Rotarod assays were conducted at different times (up to 60 min) after the administration of peptides. Statistical calculation were made using Student t-test. Results: Mouse writhing pain assay. […] The lengths of action of the various compounds were evaluated by measuring the time (T1/2) it took after injection of a specific dose of a compound to produce half-maximal effect. […] Analgesic effects of peripheral administrations. […] Mouse tail-flick assay.

[2] = system: Swiss Webster mice; test: Mouse writhing test (acetic acid-induced); format: in vivo; conditions: for AD50 (nmol/mouse): acetic acid i.p. 5 min after injection; for analgesia: i.v. administration, 1 μmol/kg; for analgesic activity after peripheral administration: oral and i.p. administrations
[3] = system: Swiss Webster mice; test: Mouse tail flick assay (radiant heat); format: in vivo; conditions: i.c.v.; for AD50 (nmol/mouse): latency 5 min after injection
Procedure: Mouse tail flick assay. […] Briefly, the latency to withdraw the tail from a focused light stimulus was determined using a photocell. […] Baseline latencies were determined before experimental treatment as the mean of two trials and a maximal latency of 12 s was used to minimize tissue damage. Post-treatment latencies were determined 5 min after i.c.v. injection. The antinociceptive effect was expressed as the percentage of the maximum possible effect, as calculated by the formula: % MPE=[(post-injection latency-baseline latency)/(cutoff latency-baseline latency)]×100. […] Group % MPE means were compared using one-way ANOVAs and P≦0.05 was considered significant.

[4] = system: rat; conditions: literature; cited from earlier work
[5] = sciatic nerve injury, literature; cited from earlier work
[6] = i.t. administration of NMDA, literature; cited from earlier work
[7] = system: Swiss Webster mice; conditions: literature values; cited from earlier work
[8] = system: Swiss Webster mice; test: Induction of tolerance to morphine, tail-flick latency; format: in vivo, mouse; conditions: for tail-flick latency on repeated dosing: 8 days
Procedure: Tail-flick latency to thermal pain was recorded 30 min after the i.p. administration(s) in the morning session of days 1, 3, 6 and 8 as indicated in the figure.

| Compound | motor effect [1] | Potency ratio relative to Histogranin (HN) ([2]; i.c.v.) | AD50 (nmol/mouse) ([2]; i.c.v.) | Potency ratio relative to [Ser1]HN [3] | AD50 (nmol/mouse) [3] | other results |
| --- | --- | --- | --- | --- | --- | --- |
| N=C(N)NCCC[C@@H](Nc1ccc(C(=O)O)cc1NC(=O)Cc1ccc(O)cc1)C(N)=O [II-3, N-5-guanidinopentanamide-(2R)-yl-2-N-(p-hydroxyphenylacetyl)-4-carboxy-phenylenediamine] | did not cause any motor effect | 7.27 | 3.16 nmol/mouse | 3.59 | 31.7 nmol/mouse | – |
| N=C(N)NCCC[C@H]1NC(=O)[C@H](Cc2ccc(O)cc2)NC(=O)[C@H](Cc2ccc(Cl)cc2)NC(=O)CNC1=O [Compound I-1, Cyclo(-Gly-(p-chloro)Phe-Tyr-D-Arg-)] (cyclo(G[Phe(4-Cl)]Y[dR])) | did not cause any motor effect | 135 | 0.17 nmol/mouse | 12.5 | 9.1 nmol/mouse | fold more potent than morphine ([2]; i.c.v.): 3.9 fold; analgesia [2]: 84%; analgesic activity after peripheral administration [2]: dose-dependent analgesic activity; also recorded: Significant analgesic activity; analgesia in tail-flick assay in words [3]: more potent than HN |
| [Ser^1] HN: a chemically stable analog of HN | – | – | – | 1 | 114 nmol/mouse | tonic pain [4]: blocked tonic pain; hyperalgesia and allodynia [5]: attenuated hyperalgesia and allodynia; hyperalgesia and allodynia [6]: attenuated hyperalgesia and allodynia |
| N=C(N)NCCC[C@@H](Nc1ccc(C(=O)c2ccc(Cl)cc2)cc1NC(=O)Cc1ccc(O)cc1)C(N)=O [II-4, N-5-guanidinopentanamide-(2R)-yl-2-N-(p-hydroxyphenylacetyl)-4-(p-chlorobenzoyl)-phenylenediamine] | did not cause any motor effect | 8.87 | 2.61 nmol/mouse | 8.70 | 13.1 nmol/mouse | – |
| Cyclo(-Gly-(p-amino)Phe-Tyr-D-Arg-) [Compound I-4] | – | 9.14 | 2.52 nmol/mouse | – | – | analgesia [2]: 71% |
| CC(C)CC(NC(=O)C(NC(=O)C(CCCNC(=N)N)NC(=O)CNC(=O)C(CCC(N)=O)NC(=O)CN)C(C)O)C(=O)NC(Cc1ccc(O)cc1)C(=O)NCC(=O)NC(Cc1ccccc1)C(=O)O (stereo not shown) [HN-(7–15), reference compound] (H-GQGRTLYGF-OH; configuration not given here) | – | 2.71 | 8.5 nmol/mouse | – | – | AD50 [7]: 8.5 nmol/mouse |
| Cyclo(-Gly-(p-chloro)Phe-Tyr-(p-amino)Phe-) [Compound I-2] | – | 3.39 | 6.79 nmol/mouse | – | – | – |
| N=C(N)NCCC[C@H](Nc1ccccc1NC(=O)Cc1ccc(O)cc1)C(N)=O [II-1, N-5-guanidinopentanamide-(2S)-yl-2-N-(p-hydroxyphenylacetyl) phenylenediamine] | did not cause any motor effect | 3.54 | 6.5 nmol/mouse | 8.0 | 14.2 nmol/mouse | effect on analgesic effect of morphine ([8]; 4 mg/kg i.p. 30 min prior to morphine 10 mg/kg): potentiated the analgesic effect of morphine; effect on morphine tolerance ([8]; 4 mg/kg i.p. 30 min prior to morphine 10 mg/kg, days 6 and 8): inhibits morphine tolerance; tail-flick latency on repeated dosing ([8]; 4 mg/kg i.p. twice a day, alone): small increase in the tail-flick latency that was significant only on days 1 and 8; potentiation of morphine analgesia ([2]; coadministration i.c.v. of subanalgesic dose (3 nmol) with morphine): left shift in the dose-response curve of morphine; also recorded: potentiates the analgesic effects of morphine; prolongation of morphine analgesia ([2]; coadministration with morphine 0.5 nmol i.c.v.): slightly prolongated; analgesia [2]: 35%; analgesic activity after peripheral administration [2]: dose-dependent analgesic activity; also recorded: Significant analgesic activity; analgesia in tail-flick assay in words [3]: more potent than HN |
| Cyclo(-Gly-(p-chloro)Phe-Tyr-(p-guanidino)Phe-) [Compound I-3] | – | 21.3 | 1.08 nmol/mouse | – | – | – |
| N=C(N)NCCC[C@H](C(N)=O)n1c(-c2ccc(O)cc2)nc2cc(C(=O)O)ccc21 [III-1] | did not cause any motor effect | 5.56 | 4.14 nmol/mouse | 11.9 | 9.6 nmol/mouse | analgesic activity after peripheral administration [2]: dose-dependent analgesic activity; also recorded: Significant analgesic activity; analgesia in tail-flick assay in words [3]: more potent than HN |
| C[C@@H](O)[C@@H]1NC(=O)[C@@H](CCCNC(=N)N)NC(=O)[C@H](Cc2ccc(O)cc2)NC(=O)[C@H](Cc2ccc(Cl)cc2)NC1=O [Compound I-5, Cyclo(-Thr-(p-chloro)Phe-Tyr-D-Arg-)] (cyclo([Phe(4-Cl)]Y[dR]T)) | did not cause any motor effect | 2.14 | 10.7 nmol/mouse | 2.96 | 38.5 nmol/mouse | – |
| CN1CC[C@]23c4c5ccc(O)c4O[C@H]2[C@@H](O)C=C[C@H]3[C@H]1C5 [Morphine, reference compound] | – | – | 0.72 nmol/mouse | – | 1.57 nmol/mouse | tail-flick latency on repeated dosing ([8]; 10 mg/kg i.p. twice a day): tolerance being developed at days 6 and 8 |
| N=C(N)NCCC[C@H](Nc1ccc(C(F)(F)F)cc1NC(=O)Cc1ccc(O)cc1)C(N)=O [II-2, N-5-guanidinopentanamide-(2S)-yl-2-N-(p-hydroxyphenylacetyl)-4-trifluorometyl-phenylenediamine] | did not cause any motor effect | 1.40 | 16.1 nmol/mouse | 1.16 | 98.6 nmol/mouse | – |
